Activity calls are given as the source filed them. No rule for the calls is given here.
Molecular target: Activated CDC42 kinase 1 (Homo sapiens, UniProt Q07912)
Assay: Navigating the Kinome. Panel member name: ACK1
Assay type: functional

Sequence of Activated CDC42 kinase 1 (Q07912 whole entry): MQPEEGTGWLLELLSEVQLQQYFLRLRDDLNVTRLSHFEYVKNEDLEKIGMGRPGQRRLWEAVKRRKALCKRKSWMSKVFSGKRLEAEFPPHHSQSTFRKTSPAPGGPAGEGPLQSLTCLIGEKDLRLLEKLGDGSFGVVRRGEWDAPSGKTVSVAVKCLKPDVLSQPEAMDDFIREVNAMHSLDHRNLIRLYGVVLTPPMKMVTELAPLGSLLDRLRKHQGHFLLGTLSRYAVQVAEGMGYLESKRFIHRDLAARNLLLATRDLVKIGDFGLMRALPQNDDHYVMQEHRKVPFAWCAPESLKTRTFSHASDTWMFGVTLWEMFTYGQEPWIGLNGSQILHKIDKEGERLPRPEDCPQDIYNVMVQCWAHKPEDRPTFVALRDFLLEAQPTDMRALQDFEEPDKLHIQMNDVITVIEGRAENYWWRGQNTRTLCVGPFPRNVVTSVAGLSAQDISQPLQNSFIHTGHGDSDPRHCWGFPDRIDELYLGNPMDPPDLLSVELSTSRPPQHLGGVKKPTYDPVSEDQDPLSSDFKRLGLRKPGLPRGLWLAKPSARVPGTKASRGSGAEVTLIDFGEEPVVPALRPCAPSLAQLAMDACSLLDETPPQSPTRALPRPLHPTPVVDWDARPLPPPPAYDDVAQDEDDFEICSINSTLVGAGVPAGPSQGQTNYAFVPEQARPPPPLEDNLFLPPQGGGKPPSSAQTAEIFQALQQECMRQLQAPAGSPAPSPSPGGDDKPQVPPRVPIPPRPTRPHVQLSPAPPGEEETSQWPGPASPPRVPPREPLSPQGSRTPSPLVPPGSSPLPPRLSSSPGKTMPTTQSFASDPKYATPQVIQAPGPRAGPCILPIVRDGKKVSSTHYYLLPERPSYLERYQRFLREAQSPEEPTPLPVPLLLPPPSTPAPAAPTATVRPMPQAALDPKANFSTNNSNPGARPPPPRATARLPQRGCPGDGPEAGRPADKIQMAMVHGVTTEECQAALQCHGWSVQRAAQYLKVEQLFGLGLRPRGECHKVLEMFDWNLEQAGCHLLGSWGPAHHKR

## [2H]C([2H])([2H])Oc1cccc(C(C)NC(=O)c2sc(-c3ccncc3)nc2C)c1 (stereo unspecified)
  Ki: > 3.98 µM (inactive)
